According to PubChem BioAssay (NCI):
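Cells were grown in 96-well plates and exposed to each compound for 48 hours at five concentrations; endpoints were interpolated linearly between bracketing concentrations, or set to the highest concentration if not reached. GI50 = concentration required for 50% inhibition of growth. At the TGI there is no net growth.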

Legend:
Assay in all cases: NCI-60 cell line screen, 48 h
CCRF-CEM leukemia = tested on: CCRF-CEM leukemia
NCI-H522 lung = tested on: NCI-H522 lung
MOLT-4 leukemia = tested on: MOLT-4 leukemia
NCI-H23 lung = tested on: NCI-H23 lung
HL-60(TB) leukemia = tested on: HL-60(TB) leukemia
SF-268 CNS = tested on: SF-268 CNS
SNB-19 CNS = tested on: SNB-19 CNS

In the case of O=c1cc(-c2ccc3c(c2)OCCO3)oc2cc(Cl)ccc12, the GI50 (CCRF-CEM leukemia) is reported as greater than 100 µM, the TGI (CCRF-CEM leukemia) is reported as greater than 100 µM and the GI50 (NCI-H522 lung) is reported as 2.97 µM. The TGI (NCI-H522 lung) was greater than 100 µM, the GI50 (MOLT-4 leukemia) was greater than 100 µM and the TGI (MOLT-4 leukemia) was greater than 100 µM. The GI50 (NCI-H23 lung) was 5.67 µM, the TGI (NCI-H23 lung) was greater than 100 µM and the GI50 (HL-60(TB) leukemia) was greater than 100 µM. It also gave a TGI (HL-60(TB) leukemia) greater than 100 µM, a GI50 (SF-268 CNS) of 3.37 µM and a TGI (SF-268 CNS) greater than 100 µM. The GI50 (SNB-19 CNS) was 3.62 µM and the TGI (SNB-19 CNS) was greater than 100 µM.
